Earlier results in patent publication US20130137759A1, “COMPOSITIONS AND METHODS FOR TREATING PARASITIC DISEASE” (Worcester Polytechnic Institute, priority 2010, published 2013).

Assays:
[1] = system: P. falciparum
[2] = rats, intragastric in 1:9 dimethyl-acetamide-oil, 10 mg kg^−1 (2,320 μg per rat)

Structure (SMILES): C[C@@H]1CC[C@H]2[C@@H](C)C(=O)O[C@@H]3O[C@@]4(C)CC[C@@H]1[C@]32OO4 [artemisinin]
- half-life (healthy male volunteers): 1 to 3 h
- tmax (humans, pure AN (Rath et al. 2004)): 2.3 h

Structure (SMILES): COc1cc2oc(-c3ccc(O)c(O)c3)c(OC)c(=O)c2c(O)c1OC [chrysosplenol-D]
- effect on AN activity against P. falciparum ([1]; combined with pure AN): significant enhancement of AN activity
- direct effect on P. falciparum ([1]; flavonoid alone): no direct effect

Structure (SMILES): C[C@H]1[C@@H](O)O[C@@H]2O[C@@]3(C)CC[C@H]4[C@H](C)CC[C@@H]1[C@@]24OO3 [dihydroartemisinin]
- Plasma/serum concentration Artemisinin Cmax [2]: 0.8 µg/mL
